Results taken from the NIST ThermoML archive (doi:10.1016/j.jct.2015.10.026).

Assay: mn = molality of the nth substance listed, in mol/kg
Settings: 100 kPa, Liquid; for viscosity: Capillary tube (Ostwald / Ubbelohde) method; for electrical conductivity: Direct current cell with electrodes; for mass density: Vibrating tube method

CCCCn1cc[n+](C)c1.NCCS(=O)(=O)[O-] [1-butyl-3-methylimidazolium taurate] + O
Settings | electrical conductivity [S/m] | mass density [kg/m3] | viscosity [mPa·s]
293.15 K, m1 = 0.00165 | 0.0072 | – | –
293.15 K, m1 = 0.00227 | 0.0097 | – | –
293.15 K, m1 = 0.00341 | 0.0142 | – | –
293.15 K, m1 = 0.00511 | 0.0205 | 998.36 | –
293.15 K, m1 = 0.00752 | 0.0293 | 998.46 | –
293.15 K, m1 = 0.00917 | – | 998.52 | –
293.15 K, m1 = 0.01078 | 0.0403 | 998.59 | 1.034
293.15 K, m1 = 0.01261 | 0.0464 | 998.67 | 1.038
293.15 K, m1 = 0.01552 | 0.0552 | 998.81 | 1.043
293.15 K, m1 = 0.01938 | 0.0668 | 999 | 1.05
293.15 K, m1 = 0.02239 | 0.0757 | 999.16 | –
293.15 K, m1 = 0.02555 | – | 999.33 | 1.06
293.15 K, m1 = 0.02746 | – | 999.43 | –
293.15 K, m1 = 0.03626 | – | – | 1.074
293.15 K, m1 = 0.05001 | – | – | 1.093
293.15 K, m1 = 0.0693 | – | – | 1.117
293.15 K, m1 = 0.08462 | – | – | 1.133
298.15 K, m1 = 0.00165 | 0.0089 | – | –
298.15 K, m1 = 0.00227 | 0.0121 | – | –
298.15 K, m1 = 0.00341 | 0.0177 | – | –
298.15 K, m1 = 0.00511 | 0.0257 | 997.16 | –
298.15 K, m1 = 0.00752 | 0.0365 | 997.24 | –
298.15 K, m1 = 0.00917 | – | 997.3 | –
298.15 K, m1 = 0.01078 | 0.0498 | 997.36 | 0.925
298.15 K, m1 = 0.01261 | 0.0571 | 997.43 | 0.928
298.15 K, m1 = 0.01552 | 0.0684 | 997.56 | 0.934
298.15 K, m1 = 0.01938 | 0.0824 | 997.74 | 0.94
298.15 K, m1 = 0.02239 | 0.0922 | 997.89 | –
298.15 K, m1 = 0.02555 | – | 998.06 | 0.95
298.15 K, m1 = 0.02746 | – | 998.16 | –
298.15 K, m1 = 0.03626 | – | – | 0.965
298.15 K, m1 = 0.05001 | – | – | 0.981
298.15 K, m1 = 0.0693 | – | – | 1.004
298.15 K, m1 = 0.08462 | – | – | 1.018
303.15 K, m1 = 0.00165 | 0.0104 | – | –
303.15 K, m1 = 0.00227 | 0.0141 | – | –
303.15 K, m1 = 0.00341 | 0.0206 | – | –
303.15 K, m1 = 0.00511 | 0.0299 | 995.73 | –
303.15 K, m1 = 0.00752 | 0.0425 | 995.79 | –
303.15 K, m1 = 0.00917 | – | 995.83 | –
303.15 K, m1 = 0.01078 | 0.0587 | 995.88 | 0.835
303.15 K, m1 = 0.01261 | 0.0675 | 995.94 | 0.838
303.15 K, m1 = 0.01552 | 0.0805 | 996.06 | 0.844
303.15 K, m1 = 0.01938 | 0.0965 | 996.22 | 0.85
303.15 K, m1 = 0.02239 | 0.107 | 996.37 | –
303.15 K, m1 = 0.02555 | – | 996.53 | 0.86
303.15 K, m1 = 0.02746 | – | 996.63 | –
303.15 K, m1 = 0.03626 | – | – | 0.874
303.15 K, m1 = 0.05001 | – | – | 0.89
303.15 K, m1 = 0.0693 | – | – | 0.911
303.15 K, m1 = 0.08462 | – | – | 0.925
308.15 K, m1 = 0.00165 | 0.0119 | – | –
308.15 K, m1 = 0.00227 | 0.0161 | – | –
308.15 K, m1 = 0.00341 | 0.0237 | – | –
308.15 K, m1 = 0.00511 | 0.0344 | 994.08 | –
308.15 K, m1 = 0.00752 | 0.0488 | 994.12 | –
308.15 K, m1 = 0.00917 | – | 994.15 | –
308.15 K, m1 = 0.01078 | 0.067 | 994.19 | 0.76
308.15 K, m1 = 0.01261 | 0.0772 | 994.24 | 0.764
308.15 K, m1 = 0.01552 | 0.092 | 994.34 | 0.77
308.15 K, m1 = 0.01938 | 0.111 | 994.48 | 0.776
308.15 K, m1 = 0.02239 | 0.123 | 994.63 | –
308.15 K, m1 = 0.02555 | – | 994.78 | 0.786
308.15 K, m1 = 0.02746 | – | 994.88 | –
308.15 K, m1 = 0.03626 | – | – | 0.801
308.15 K, m1 = 0.05001 | – | – | 0.817
308.15 K, m1 = 0.0693 | – | – | 0.837
308.15 K, m1 = 0.08462 | – | – | 0.851
313.15 K, m1 = 0.00165 | 0.0135 | – | –
313.15 K, m1 = 0.00227 | 0.0182 | – | –
313.15 K, m1 = 0.00341 | 0.0265 | – | –
313.15 K, m1 = 0.00511 | 0.0385 | 992.21 | –
313.15 K, m1 = 0.00752 | 0.0544 | 992.23 | –
313.15 K, m1 = 0.00917 | – | 992.26 | –
313.15 K, m1 = 0.01078 | 0.0749 | 992.29 | 0.698
313.15 K, m1 = 0.01261 | 0.0858 | 992.34 | 0.702
313.15 K, m1 = 0.01552 | 0.102 | 992.42 | 0.708
313.15 K, m1 = 0.01938 | 0.121 | 992.55 | 0.715
313.15 K, m1 = 0.02239 | 0.134 | 992.67 | –
313.15 K, m1 = 0.02555 | – | 992.8 | 0.725
313.15 K, m1 = 0.02746 | – | 992.88 | –
313.15 K, m1 = 0.03626 | – | – | 0.74
313.15 K, m1 = 0.05001 | – | – | 0.757
313.15 K, m1 = 0.0693 | – | – | 0.779
313.15 K, m1 = 0.08462 | – | – | 0.793
